Columns and labels:
human Gal-1 (hGal-1) = human Gal-1 (hGal-1) (Homo sapiens, UniProt P09382, C131S/C17S/C43S/C61S/C89S); assay: Competitive binding assay: biotinylated hGal-1 binding to microplate-adsorbed asialofetuin (ASF); conditions: IC50 values from several measurements given as geomean
Summary of the method: (§1)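 Biotinylated hGal-3 or hGal-1 (preferably cysteine-free Cys→Ser mutant), 300–1000 ng/mL, competes with compound for ASF-coated wells for 3 h at 4 °C. Bound lectin detected with streptavidin-peroxidase (80 ng/mL, 1 h, 4 °C) and ABTS by absorbance; IC50 reported as geomean of several runs.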

human Gal-3 (hGal-3) = human Gal-3 (hGal-3) (Homo sapiens (Human), UniProt P17931); assay: Competitive binding assay: biotinylated hGal-3 binding to microplate-adsorbed asialofetuin (ASF); conditions: IC50 values from several measurements given as geomean
human Gal-3 (hGal-3), sequence (P17931 whole entry): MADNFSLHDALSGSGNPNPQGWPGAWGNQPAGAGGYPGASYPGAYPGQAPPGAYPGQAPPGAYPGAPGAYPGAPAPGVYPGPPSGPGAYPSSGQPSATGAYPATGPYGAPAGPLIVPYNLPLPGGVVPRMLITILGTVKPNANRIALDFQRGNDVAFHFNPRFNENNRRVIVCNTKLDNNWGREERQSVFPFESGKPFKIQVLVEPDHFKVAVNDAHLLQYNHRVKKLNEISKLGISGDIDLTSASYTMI
Summary of the method: as §1

SMILES	IC50 (human Gal-1 (hGal-1))	IC50 (human Gal-3 (hGal-3))
COC1=C(N2CC(c3ccc(C)c(F)c3F)NN2)C(O)=C(CO)O[C@@H]1Cn1cc(C23CCC(NC(=O)OC(C)(C)C)(CC2)CC3)nn1 (stereo partly shown) [Ex 1.2.37.]	9400 nM	20 nM
CCC1(c2cn(C[C@H]3O[C@H](CO)[C@H](O)[C@H](n4cc(-c5ccc(C)c(F)c5F)nn4)[C@H]3OC)nn2)COC1 [Ex 1.2.38.]	2650 nM	30 nM
CO[C@@H]1[C@@H](n2cc(-c3ccc(C)c(F)c3F)nn2)[C@@H](O)[C@@H](CO)O[C@@H]1Cc1cn(C23CCC(N)(CC2)CC3)nn1 [Ex 1.2.39.]	11000 nM	60 nM
CO[C@@H]1[C@@H](n2cc(-c3ccc(Cl)c(F)c3F)nn2)[C@@H](O)[C@@H](CO)O[C@@H]1Cc1cn(C2(CO)CC2)nn1 [Ex 2.1.4.]	3050 nM	40 nM
CO[C@@H]1[C@@H](n2cc(-c3ccc(Cl)c(F)c3F)nn2)[C@@H](O)[C@@H](CO)O[C@@H]1Cc1cn(C2(CO)CCCC2)nn1 [Ex 2.1.5.]	2250 nM	60 nM
CO[C@@H]1[C@@H](n2cc(-c3ccc(Cl)c(F)c3F)nn2)[C@@H](O)[C@@H](CO)O[C@@H]1Cc1cn(C2(C)COC2)nn1 [Ex 2.1.6.]	760 nM	40 nM
COCC1(n2cc(C[C@H]3O[C@H](CO)[C@H](O)[C@H](n4cc(-c5ccc(Cl)c(F)c5F)nn4)[C@H]3OC)nn2)CC1 [Ex 2.1.7.]	2950 nM	60 nM
CO[C@@H]1[C@@H](n2cc(-c3ccc(Cl)c(F)c3F)nn2)[C@@H](O)[C@@H](CO)O[C@@H]1Cc1cn(C23CCC(O)(CC2)CC3)nn1 [Ex 2.1.8.]	4430 nM	30 nM
CO[C@@H]1[C@@H](n2cc(-c3ccc(Cl)c(F)c3F)nn2)[C@@H](O)[C@@H](CO)O[C@@H]1Cc1cn(C(C)(C)CO)nn1 [Ex 2.1.9.]	1670 nM	40 nM
CO[C@@H]1[C@@H](n2cc(-c3ccc(Cl)c(F)c3F)nn2)[C@@H](O)[C@@H](CO)O[C@@H]1Cc1cn(C2(CO)CCC2)nn1 [Ex 2.1.11.]	2510 nM	50 nM
CO[C@@H]1[C@@H](n2cc(-c3ccc(Cl)c(F)c3F)nn2)[C@@H](O)[C@@H](CO)O[C@@H]1Cc1cn(C23CC(C2)C3)nn1 [Ex 2.1.12.]	3250 nM	50 nM
CO[C@@H]1[C@@H](n2cc(-c3ccc(Cl)c(F)c3F)nn2)[C@@H](O)[C@@H](CO)O[C@@H]1Cc1cn(C2(C)CCC2)nn1 [Ex 2.1.13.]	690 nM	20 nM
CO[C@@H]1[C@@H](n2cc(-c3ccc(Cl)c(F)c3F)nn2)[C@@H](O)[C@@H](CO)O[C@@H]1Cc1cn(C23CC(C)(C2)C3)nn1 [Ex 2.1.14.]	3450 nM	50 nM
CO[C@@H]1[C@@H](n2cc(-c3ccc(Cl)c(F)c3F)nn2)[C@@H](O)[C@@H](CO)O[C@@H]1Cc1cn(C2(C)CC(F)(F)C2)nn1 [Ex 2.1.15.]	1710 nM	50 nM
CO[C@@H]1[C@@H](n2cc(-c3ccc(Cl)c(F)c3F)nn2)[C@@H](O)[C@@H](CO)O[C@@H]1Cc1cn(C2CC3(COC3)C2)nn1 [Ex 2.1.16.]	5930 nM	90 nM
CO[C@@H]1[C@@H](n2cc(-c3ccc(Cl)c(F)c3F)nn2)[C@@H](O)[C@@H](CO)O[C@@H]1Cc1cn(C2CC2C(C)C)nn1 (stereo partly shown) [Ex 2.1.17.]	11500 nM	160 nM
CO[C@@H]1[C@@H](n2cc(-c3ccc(Cl)c(F)c3F)nn2)[C@@H](O)[C@@H](CO)O[C@@H]1Cc1cn(C2(CO)CC(F)(F)C2)nn1 [Ex 2.1.18.]	2810 nM	40 nM
CO[C@@H]1[C@@H](n2cc(-c3ccc(Cl)c(F)c3F)nn2)[C@@H](O)[C@@H](CO)O[C@@H]1Cc1cn([C@]2(C)C[C@H](O)C2)nn1 [Ex 2.1.19.]	630 nM	40 nM
CO[C@@H]1[C@@H](n2cc(-c3ccc(Cl)c(F)c3F)nn2)[C@@H](O)[C@@H](CO)O[C@@H]1Cc1cn(C2[C@H]3CCC[C@@H]23)nn1 (stereo partly shown) [Ex 2.1.20.]	2060 nM	60 nM
COCC1(n2cc(C[C@H]3O[C@H](CO)[C@H](O)[C@H](n4cc(-c5ccc(Cl)c(F)c5F)nn4)[C@H]3OC)nn2)COC1 [Ex 2.1.21.]	900 nM	50 nM
